According to ChEMBL document CHEMBL1148138, “New eremophilenolides from Ligulariopsis shichuana” (2002):

Tests used:
[1] = system: Bacillus subtilis; assay: Antibacterial activity against Bacillus subtilis at 100 ug/mL after 24 hrs by cup-plate method; assay type: functional; details: read-out: Diameter of inhibition zone
[2] = system: Escherichia coli; assay: Antibacterial activity against Escherichia coli at 100 ug/mL after 24 hrs by cup-plate method; assay type: functional; details: read-out: Diameter of inhibition zone

SMILES	zone of inhibition at 100 µg/mL [1] [mm]	zone of inhibition at 100 µg/mL [2] [mm]
C/C=C(/C)C(=O)O[C@@H]1[C@@]23O[C@@H]2C[C@H](OC(C)=O)[C@H](C)[C@@]3(C)CC2=C(C)C(=O)O[C@@]21O	13	13
CC(C)=CC(=O)O[C@H]1C[C@H]2O[C@]23C[C@@]2(O)OC(=O)C(C)=C2C[C@]3(C)[C@H]1C	16	13
O=C(N[C@H](CO)[C@H](O)c1ccc([N+](=O)[O-])cc1)C(Cl)Cl [CHLORAMPHENICOL]	16	16
